Data published in patent publication US12344610B2, “APOL1 inhibitors and methods of use” (Maze Therapeutics, Inc., priority 2022, dated 2025).
Where two headings read alike, the source gives them in different places.

Experiments:
Format in all cases: cell-based
Conditions in all cases: geometric mean of at least 2 assay runs, † = single assay run
[1] = tested on: Trypanosoma brucei Lister 427 VSG221 with APOL1 G1 recombinant protein; assay: APOL1 G1 trypanosome cell rescue assay (Example B5)
How it was run: (§1)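 Viability read by CellTiter-Glo luminescence after 20 h co-incubation (37° C, 5% CO2) of 250 trypanosomes/well in modified HMI-9 with test compound (duplicate 11-point, 2-fold dilutions, 0.4% DMSO) and APOL1 protein, […]. Protein: mature residues 28-398, E. coli inclusion-body refolded, tag cleaved, in DDM.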

[2] = tested on: Trypanosoma brucei Lister 427 VSG221 with APOL1 G2 recombinant protein; assay: APOL1 G2 trypanosome cell rescue assay (Example B5)
How it was run: as §1

[3] = tested on: HEK293 cells overexpressing APOL1 G2; assay: APOL1 G2 HEK293 cell rescue assay (reversal of cell death caused by overexpression of APOL1)
How it was run: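 Each compound tested in duplicate wells on one plate per run, with values usually the geometric mean across at least two runs on different days, occasionally from one run only. Read-out: concentration giving half-maximal rescue of APOL1 G2 overexpression-induced death of HEK293 cells.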

[4] = read-out: APOL1 G1 Trypanosome Rescue EC50, Trypanosoma brucei Lister 427 VSG221 with APOL1 G1 recombinant protein, 20 hours, CellTiter-Glo
[5] = read-out: APOL1 G2 Trypanosome Rescue EC50, Trypanosoma brucei Lister 427 VSG221 with APOL1 G2 recombinant protein, 20 hours, CellTiter-Glo
[6] = Trypanosoma brucei, 20 h, read-out: APOL1 G1 Trypanosome Rescue EC50, Trypanosoma brucei Lister 427 VSG221 with APOL1 G1 recombinant protein, 20 hours, CellTiter-Glo
[7] = Trypanosoma brucei, 20 h, read-out: APOL1 G2 Trypanosome Rescue EC50, Trypanosoma brucei Lister 427 VSG221 with APOL1 G2 recombinant protein, 20 hours, CellTiter-Glo
[8] = Homo sapiens, HEK293, HEK293 overexpressing APOL1 G2

| Structure (SMILES) | EC50 [1, 4] [nM] | EC50 [2, 5] [nM] | EC50 ([3]; HEK293 overexpressing APOL1 G2) [nM] | EC50 [1, 6] [nM] | EC50 [2, 7] [nM] | EC50 [3, 8] [nM] |
| --- | --- | --- | --- | --- | --- | --- |
| CS(=O)(=O)C1(c2ccc(OCCN3CCC4(CC3)C(=O)Nc3ccc(Cl)cc34)cc2)CC(O)C1 (stereo not drawn) [Compound 269, 5-chloro-1′-(2-{4-[(cis) or (trans)-3-hydroxy-1-methanesulfonylcyclobutyl]phenoxy}ethyl)-1,2-dihydrospiro[indole-3,4′-piperidin]-2-one] | 277 | 79.7 | 102 |  |  |  |
| CS(=O)(=O)C1(c2ccc(OCCN3CCC4(CC3)C(=O)Nc3ccc(Cl)cc34)cc2)CC(O)C1 (stereo not drawn) [Compound 270, 5-chloro-1′-(2-{4-[(trans) or (cis)-3-hydroxy-1-methanesulfonylcyclobutyl]phenoxy}ethyl)-1,2-dihydrospiro[indole-3,4′-piperidin]-2-one] | 82.2 | 25.3 | 25.6 |  |  |  |
| C[C@]1(O)C[C@@H](n2c(=O)cnc3cc(OCCN4CCC5(CC4)C(=O)Nc4ccc(Cl)cc45)cnc32)C1 [Compound 358, 5-chloro-1′-[2-({3-oxo-4-[(cis)-3-hydroxy-3-methylcyclobutyl]-3H,4H-pyrido[2,3-b]pyrazin-7-yl}oxy)ethyl]-1,2-dihydrospiro[indole-3,4′-piperidin]-2-one] |  |  |  | 75.2 | 31.3 | 65 |
| CC1(O)CN(c2ncc(OCCN3CCC4(CC3)C(=O)Nc3ccc(C(F)F)cc34)cn2)C1 [Compound 395, 5-(difluoromethyl)-1′-(2-{[2-(3-hydroxy-3-methylazetidin-1-yl)pyrimidin-5-yl]oxy}ethyl)-1,2-dihydrospiro[indole-3,4′-piperidin]-2-one] |  |  |  | 312 | 106 | 86.8 |
